Read-outs that look alike come from different tables or passages of the source.
How the values were obtained:
wild-type ypFabV [1] = target: T1, wild-type ypFabV (Yersinia pestis, UniProt Q8Z9U1); type: biochemical
wild-type ypFabV [2] = target: T1, wild-type ypFabV; type: biochemical; remark: listed apart in the source
Wt ypFabV = Wt ypFabV (Yersinia pestis, UniProt Q8Z9U1); experiment: biochemical; type: binding
Wt ypFabV, sequence (Q8Z9U1 whole entry, looked up): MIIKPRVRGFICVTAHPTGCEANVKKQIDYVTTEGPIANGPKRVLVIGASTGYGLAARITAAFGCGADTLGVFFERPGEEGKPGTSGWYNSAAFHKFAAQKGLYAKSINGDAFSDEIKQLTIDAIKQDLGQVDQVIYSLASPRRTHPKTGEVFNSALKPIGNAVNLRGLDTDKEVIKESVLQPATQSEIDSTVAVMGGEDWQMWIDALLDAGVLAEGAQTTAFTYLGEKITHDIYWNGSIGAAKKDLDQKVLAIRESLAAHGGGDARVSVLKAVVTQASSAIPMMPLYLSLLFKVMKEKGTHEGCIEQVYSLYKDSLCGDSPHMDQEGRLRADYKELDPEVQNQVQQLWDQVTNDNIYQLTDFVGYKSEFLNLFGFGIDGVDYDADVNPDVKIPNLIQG

T1 sequence (Q8Z9U1 whole entry, looked up): as above

Compound | product inhibition pattern with respect to NADH, wild-type ypFabV (wild-type ypFabV [1]) | product inhibition pattern with respect to ddCoA, wild-type ypFabV (wild-type ypFabV [1]) | kcat, wild-type ypFabV (wild-type ypFabV [2]) | Km (wild-type ypFabV [2]; read-out: KM, wild-type ypFabV) | Km (wild-type ypFabV [2]; read-out: KM (global fit)) | further results
NC(=O)c1ccc[n+]([C@@H]2O[C@H](COP(=O)([O-])OP(=O)(O)OC[C@H]3O[C@@H](n4cnc5c(N)ncnc54)[C@H](O)[C@@H]3O)[C@@H](O)[C@H]2O)c1 [NAD^+] | competitive | noncompetitive | – | – | – | –
CCCCCCC/C=C/C(=O)SCCNC(=O)CCNC(=O)[C@H](O)C(C)(C)COP(=O)(O)OP(=O)(O)OC[C@H]1O[C@@H](n2cnc3c(N)ncnc32)[C@H](O)[C@@H]1OP(=O)(O)O [trans-2-decenoyl-CoA] | – | – | 5.53 ± 0.333 s⁻¹ | 23 ± 3 µM | – | –
CCCCCCCCCCCC(=O)SCCNC(=O)CCNC(=O)[C@H](O)C(C)(C)COP(=O)(O)OP(=O)(O)OC[C@H]1O[C@@H](n2cnc3c(N)ncnc32)[C@H](O)[C@@H]1OP(=O)(O)O [lauroyl-CoA, Lauroyl-CoA] | noncompetitive | noncompetitive | – | – | – | –
CCCCCCCCC/C=C/C(=O)SCCNC(=O)CCNC(=O)[C@H](O)C(C)(C)COP(=O)(O)OP(=O)(O)OC[C@H]1O[C@@H](n2cnc3c(N)ncnc32)[C@H](O)[C@@H]1OP(=O)(O)O [ddCoA, trans-2-dodecenoyl-CoA] | – | – | 91.13 ± 7.1 s⁻¹ | 14 ± 1 µM | 19 ± 1 µM | Kd (Wt ypFabV): 13 ± 1 µM; kcat (global fit) (wild-type ypFabV [2]): 97.67 ± 6.47 s⁻¹
NC(=O)C1=CN([C@@H]2O[C@H](COP(=O)(O)OP(=O)(O)OC[C@H]3O[C@@H](n4cnc5c(N)ncnc54)[C@H](O)[C@@H]3O)[C@@H](O)[C@H]2O)C=CC1 [NADH] | – | – | – | – | 10 ± 1 µM | Kd (Wt ypFabV; read-out: Kd Wt ypFabV, pH 8): 13 ± 1 µM; Ki (wild-type ypFabV [2]; read-out: Ki, NADH): 22 ± 3 µM
CCCCC/C=C/C(=O)SCCNC(=O)CCNC(=O)[C@H](O)C(C)(C)COP(=O)(O)OP(=O)(O)OC[C@H]1O[C@@H](n2cnc3c(N)ncnc32)[C@H](O)[C@@H]1OP(=O)(O)O [trans-2-octenoyl-CoA] | – | – | 0.267 ± 0.017 s⁻¹ | 7 ± 1 µM | – | –
